Key:
TNF-α-induced SIRS = assay: TNF-α-induced systemic inflammatory response syndrome (SIRS) in mice; assay type: in vivo, mouse; settings: 5 mg/kg i.v. 15 min before mTNF-α 0.38 mg/kg; C57BL/6J mice
Text: To confirm that the screening strategy leads to hits functionally active in vivo, we tested one of the hits for its ability to protect against RIPK-driven inflammation in TNF-α-induced systemic inflammatory response syndrome (SIRS). This mouse model of sterile sepsis[32] is dependent on RIPK1 and RIPK3 kinase activity and independent of apoptosis and inflammasome activity.
Representative blots and quantification of p-RIPK3/RIPK3 and p-MLKL/MLKL ratios in fold-change from control. Blots were normalized to endogenous β-actin.
Nec-1 was positive control for TNF-induced SIRS protection. Body temperature and mortality were monitored up to 96 h. Further details are provided as Supplementary Information.
Animal studies, injections and monitoring. Male C57BL/6J mice with 18-26 g (Charles River Laboratories International, Inc., Wilmington, MA, USA) were used at the age of 8-14 weeks. Five to seven animals were included in each experimental group. All animal experiments were carried out with the permission of local animal ethical committee in accordance with the EU Directive (2010/63/EU), Portuguese laws (DL113/2013, 2880/2015, 260/2016) and all relevant legislations. Animals received humane care in a temperature-controlled environment with a 12 h light-dark cycle and ad libitum access to pelleted chow and water, complying with the Institute’s guidelines, and as outlined in the “Guide for the Care and Use of Laboratory Animals” prepared by the National Academy of Sciences and published by the National Institutes of Health (NIH publication 86-23 revised 1985). […] Nec-1 was diluted as follows (v/v): 48% PBS 1X, 17% DMSO and 35% PEG 400. […] All injections were administered intravenously (i.v.) in 100 µL volume each. Body temperature was recorded on mice pre-shaven back using a non-contact infrared thermometer suitable for animal use (BIO-IRB153; BioSeb, Vitrolles, France). Body temperature and mortality were monitored up to 96 h. Animals were euthanized by inhalative induction of narcosis with isoflurane at the end of the experiment, or at humane endpoints according to the Clinical Severity Score ^59.

Jurkat E6.1 cells = assay: Apoptosis modulation, caspase-3/-7 activity in Jurkat E6.1 cells + CHX, 8 h; assay type: cell-based, human; settings: Jurkat E6.1 + 0.5 μg/mL CHX
Procedure: Since apoptosis and necroptosis share key molecular players[20] and some RIPK3 necroptosis inhibitors may induce caspase-dependent cytotoxicity, hit compounds were tested for modulation of apoptosis activity in step three of the HTS workflow. Preliminary tests prior to screening encompassed the evaluation of several apoptosis inducers, such as FasL, doxorubicin, cycloheximide (CHX) and staurosporine, for their capability to modulate caspase-3/-7 activity in human Jurkat E6.1 T-cells, using Z-VAD-FMK and SN-2668/Nec-1 as negative and positive controls, respectively. […]
Adenylate kinase (AK) and lactate dehydrogenase (LDH) release from damaged cells were measured using the Toxilight BioAssay Kit (Lonza, Basel, Switzerland) and the Cytotoxicity Detection Kit (Roche Diagnostics GmbH, Mannheim, Germany), respectively. Adenosine triphosphate (ATP) metabolism was evaluated using CellTiter-Glo^TM Luminescent Cell Viability Assay (Promega, Madison, WI, USA). Apoptosis was determined by the measurement of caspase-3/-7 activity using the Caspase-Glo® 3/7 Assay (Promega) according to the manufacturer’s instructions. Cellular metabolic activity was measured using CellTiter 96® Aqueous Non-Radioactive Cell Proliferation (MTS) Assay (Promega). […]
Primary high-throughput screen. […] Eight hours after co-incubation of L929 cells with mTNF-α and test compounds, AK release was evaluated. […]

Row | SMILES | Survival in TNF-α-induced SIRS (TNF-α-induced SIRS) | TNF-α shock-associated hypothermia (body temperature) (TNF-α-induced SIRS) | Modulation of caspase-3/-7 activity (apoptosis) (Jurkat E6.1 cells)
1 | CN1C(=O)C(Cc2c[nH]c3ccccc23)NC1=S (stereo not drawn) [Nec-1, necrostatin-1] | all survived | fully protected from hypothermia | failed to modulate caspase activity
2 | O=C(c1cnn(Cc2ccccc2)c1)N1CCOc2ccccc2C1 [SN-6109] | ~50% | gradually recovered their basal temperature in 48 h post-injection | no apoptosis modulation

Reference: PMC7026080, “Phenotypic high-throughput screening platform identifies novel chemotypes for necroptosis inhibition” (Cell Death Discovery, 2020)
